According to PubChem BioAssay (NCI):
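GI50: concentration for 50% inhibition of growth. TGI is the concentration that stops growth completely.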

Tests used:
Test in all cases: NCI-60 cell line screen, 384-well format
HCC-2998 colon = tested on: HCC-2998 colon
IGROV1 ovarian = tested on: IGROV1 ovarian
NCI-H226 lung = tested on: NCI-H226 lung
OVCAR-4 ovarian = tested on: OVCAR-4 ovarian
HOP-92 NSCLC = tested on: HOP-92 NSCLC
UO-31 renal = tested on: UO-31 renal
NCI/ADR-RES ovarian = tested on: NCI/ADR-RES ovarian
PC-3 prostate = tested on: PC-3 prostate
OVCAR-8 ovarian = tested on: OVCAR-8 ovarian
OVCAR-3 ovarian = tested on: OVCAR-3 ovarian
SK-OV-3 ovarian = tested on: SK-OV-3 ovarian
TK-10 renal = tested on: TK-10 renal
MALME-3M melanoma = tested on: MALME-3M melanoma
SN12C renal = tested on: SN12C renal
NCI-H23 lung = tested on: NCI-H23 lung
MDA-MB-468 breast = tested on: MDA-MB-468 breast
SNB-75 CNS = tested on: SNB-75 CNS
SW-620 colon = tested on: SW-620 colon
T-47D breast = tested on: T-47D breast
SK-MEL-5 melanoma = tested on: SK-MEL-5 melanoma
ACHN renal = tested on: ACHN renal
HS 578T breast = tested on: HS 578T breast
U251 glioblastoma = tested on: U251 glioblastoma
A498 renal = tested on: A498 renal
786-0 renal = tested on: 786-0 renal
K-562 leukemia = tested on: K-562 leukemia
SF-295 CNS = tested on: SF-295 CNS
MCF7 breast = tested on: MCF7 breast
SF-268 CNS = tested on: SF-268 CNS
BT-549 breast = tested on: BT-549 breast
SF-539 CNS = tested on: SF-539 CNS
NCI-H460 NSCLC = tested on: NCI-H460 NSCLC
NCI-H522 lung = tested on: NCI-H522 lung
MDA-MB-435 melanoma = tested on: MDA-MB-435 melanoma
CAKI-1 renal = tested on: CAKI-1 renal
RPMI-8226 leukemia = tested on: RPMI-8226 leukemia
MOLT-4 leukemia = tested on: MOLT-4 leukemia
HL-60(TB) leukemia = tested on: HL-60(TB) leukemia
EKVX NSCLC = tested on: EKVX NSCLC
RXF 393 renal = tested on: RXF 393 renal
HCT-116 colon = tested on: HCT-116 colon
LOX IMVI melanoma = tested on: LOX IMVI melanoma
OVCAR-5 ovarian = tested on: OVCAR-5 ovarian
HCT-15 colon = tested on: HCT-15 colon
CCRF-CEM leukemia = tested on: CCRF-CEM leukemia
HOP-62 NSCLC = tested on: HOP-62 NSCLC
SNB-19 CNS = tested on: SNB-19 CNS
HT29 colon = tested on: HT29 colon
A549 NSCLC = tested on: A549 NSCLC

Q: `COc1cc(C(=O)NC2CCN(C)CC2)c(F)cc1Nc1ncc2c(n1)N(C1CCCC1)CC(F)(F)C(=O)N2C` was tested. Which GI50 (HCC-2998 colon) did it give?
A: 13.5 nM

Q: What about the TGI (HCC-2998 colon) of the same compound?
A: 51.5 nM

Q: What about the GI50 (IGROV1 ovarian) of the same compound?
A: 29.8 nM

Q: What about the TGI (IGROV1 ovarian) of the same compound?
A: 2820 nM

Q: And the GI50 (NCI-H226 lung)?
A: 1330 nM

Q: And the TGI (NCI-H226 lung)?
A: 6330 nM

Q: What about the GI50 (OVCAR-4 ovarian) of the same compound?
A: 1630 nM

Q: What about the TGI (OVCAR-4 ovarian) of the same compound?
A: 5880 nM

Q: And the GI50 (HOP-92 NSCLC)?
A: 41.3 nM

Q: And the TGI (HOP-92 NSCLC)?
A: 1400 nM

Q: What about the GI50 (UO-31 renal) of the same compound?
A: 52.1 nM

Q: What about the TGI (UO-31 renal) of the same compound?
A: 2030 nM

Q: What about the GI50 (NCI/ADR-RES ovarian) of the same compound?
A: 50.9 nM

Q: And the TGI (NCI/ADR-RES ovarian)?
A: 206 nM

Q: What about the GI50 (PC-3 prostate) of the same compound?
A: 33.4 nM

Q: What about the TGI (PC-3 prostate) of the same compound?
A: 13100 nM

Q: And the GI50 (OVCAR-8 ovarian)?
A: 10.4 nM

Q: And the TGI (OVCAR-8 ovarian)?
A: 26.8 nM

Q: And the GI50 (OVCAR-3 ovarian)?
A: < 10 nM

Q: And the TGI (OVCAR-3 ovarian)?
A: 14.1 nM

Q: And the GI50 (SK-OV-3 ovarian)?
A: 16.7 nM

Q: And the TGI (SK-OV-3 ovarian)?
A: 1160 nM

Q: And the GI50 (TK-10 renal)?
A: 1380 nM

Q: And the TGI (TK-10 renal)?
A: 5990 nM

Q: And the GI50 (MALME-3M melanoma)?
A: 26.5 nM

Q: And the TGI (MALME-3M melanoma)?
A: 1530 nM

Q: And the GI50 (SN12C renal)?
A: 246 nM

Q: What about the TGI (SN12C renal) of the same compound?
A: 3440 nM

Q: What about the GI50 (NCI-H23 lung) of the same compound?
A: < 10 nM

Q: And the TGI (NCI-H23 lung)?
A: 16.7 nM

Q: And the GI50 (MDA-MB-468 breast)?
A: < 10 nM

Q: What about the TGI (MDA-MB-468 breast) of the same compound?
A: < 10 nM

Q: What about the GI50 (SNB-75 CNS) of the same compound?
A: 47.2 nM

Q: What about the TGI (SNB-75 CNS) of the same compound?
A: 3280 nM

Q: What about the GI50 (SW-620 colon) of the same compound?
A: < 10 nM

Q: And the TGI (SW-620 colon)?
A: 28.4 nM

Q: What about the GI50 (T-47D breast) of the same compound?
A: 26.1 nM

Q: And the TGI (T-47D breast)?
A: 1270 nM

Q: What about the GI50 (SK-MEL-5 melanoma) of the same compound?
A: < 10 nM

Q: And the TGI (SK-MEL-5 melanoma)?
A: 42.8 nM

Q: What about the GI50 (ACHN renal) of the same compound?
A: 83.1 nM

Q: What about the TGI (ACHN renal) of the same compound?
A: 11300 nM

Q: What about the GI50 (HS 578T breast) of the same compound?
A: 13.5 nM

Q: And the TGI (HS 578T breast)?
A: 42.1 nM

Q: And the GI50 (U251 glioblastoma)?
A: < 10 nM

Q: And the TGI (U251 glioblastoma)?
A: 2360 nM

Q: And the GI50 (A498 renal)?
A: 99.5 nM

Q: And the TGI (A498 renal)?
A: 10700 nM

Q: And the GI50 ([…]-0 renal)?
A: 30.8 nM

Q: What about the TGI (786-0 renal) of the same compound?
A: 1430 nM

Q: And the GI50 (K-562 leukemia)?
A: < 10 nM

Q: What about the TGI (K-562 leukemia) of the same compound?
A: 53.7 nM

Q: And the GI50 (SF-295 CNS)?
A: 30.8 nM

Q: And the TGI (SF-295 CNS)?
A: 272 nM

Q: What about the GI50 (MCF7 breast) of the same compound?
A: < 10 nM

Q: And the TGI (MCF7 breast)?
A: 1510 nM

Q: And the GI50 (SF-268 CNS)?
A: < 10 nM

Q: And the TGI (SF-268 CNS)?
A: < 10 nM

Q: What about the GI50 (BT-549 breast) of the same compound?
A: 30.9 nM

Q: And the TGI (BT-549 breast)?
A: 242 nM

Q: What about the GI50 (SF-539 CNS) of the same compound?
A: 20.5 nM

Q: What about the TGI (SF-539 CNS) of the same compound?
A: 1060 nM

Q: And the GI50 (NCI-H460 NSCLC)?
A: < 10 nM

Q: And the TGI (NCI-H460 NSCLC)?
A: 14.7 nM

Q: And the GI50 (NCI-H522 lung)?
A: < 10 nM

Q: And the TGI (NCI-H522 lung)?
A: < 10 nM

Q: And the GI50 (MDA-MB-435 melanoma)?
A: < 10 nM

Q: What about the TGI (MDA-MB-435 melanoma) of the same compound?
A: 10.8 nM

Q: And the GI50 (CAKI-1 renal)?
A: 93.2 nM

Q: And the TGI (CAKI-1 renal)?
A: 10500 nM

Q: What about the GI50 (RPMI-8226 leukemia) of the same compound?
A: 16.3 nM

Q: What about the TGI (RPMI-8226 leukemia) of the same compound?
A: 31.5 nM

Q: What about the GI50 (MOLT-4 leukemia) of the same compound?
A: < 10 nM

Q: And the TGI (MOLT-4 leukemia)?
A: < 10 nM

Q: And the GI50 (HL-60(TB) leukemia)?
A: < 10 nM

Q: What about the TGI (HL-60(TB) leukemia) of the same compound?
A: < 10 nM

Q: And the GI50 (EKVX NSCLC)?
A: 91.7 nM

Q: And the TGI (EKVX NSCLC)?
A: 6980 nM

Q: What about the GI50 (RXF 393 renal) of the same compound?
A: < 10 nM

Q: And the TGI (RXF 393 renal)?
A: 27.4 nM

Q: What about the GI50 (HCT-116 colon) of the same compound?
A: < 10 nM

Q: And the TGI (HCT-116 colon)?
A: 1340 nM

Q: What about the GI50 (LOX IMVI melanoma) of the same compound?
A: 16.7 nM

Q: And the TGI (LOX IMVI melanoma)?
A: 1150 nM

Q: And the GI50 (OVCAR-5 ovarian)?
A: 14 nM

Q: And the TGI (OVCAR-5 ovarian)?
A: 1730 nM

Q: What about the GI50 (HCT-15 colon) of the same compound?
A: 21.4 nM

Q: And the TGI (HCT-15 colon)?
A: 160 nM

Q: What about the GI50 (CCRF-CEM leukemia) of the same compound?
A: < 10 nM

Q: What about the TGI (CCRF-CEM leukemia) of the same compound?
A: < 10 nM

Q: What about the GI50 (HOP-62 NSCLC) of the same compound?
A: < 10 nM

Q: And the TGI (HOP-62 NSCLC)?
A: 2900 nM

Q: And the GI50 (SNB-19 CNS)?
A: 17.5 nM

Q: And the TGI (SNB-19 CNS)?
A: 5750 nM

Q: What about the GI50 (HT29 colon) of the same compound?
A: < 10 nM

Q: And the TGI (HT29 colon)?
A: 19.3 nM

Q: And the GI50 (A549 NSCLC)?
A: < 10 nM

Q: What about the TGI (A549 NSCLC) of the same compound?
A: 410 nM
